Source: US8383629B2, “Inhibitors of 11β-hydroxysteroid dehydrogenase type 1” (Vitae Pharmaceuticals, Inc., priority 2008, dated 2013)

Target: T1, human 11β-HSD1 (Homo sapiens, UniProt P28845)
T1 construct: expressed in transfected cells; host or cells: CHO cells (microsomes)
Test: Inhibition of microsomal preparation of 11β-HSD1 (SPA, Biological Test Example 1)
Format: biochemical
Details: for inhibition at 0.111 µM: 111 nM; for IC50: microsomes from CHO cells overexpressing human 11β-HSD1, read-out: IC50 Range; for inhibition at 0.1 µM: 100 nM
Protocol: The inhibition of microsomal preparation of 11β-HSD1 by compounds of the invention was measured essentially as previously described (K. Solly, S. S. Mundt, H. J. Zokian, G. J. Ding, A. Hermanowski-Vosatka, B. Strulovici, and W. Zheng, High-Throughput Screening of 11-Beta-Hydroxysteroid Dehydrogenase Type 1 in Scintillation Proximity Assay Format. Assay Drug Dev Technol 3 (2005) 377-384). All reactions were carried out at rt in 96 well clear flexible PET Microbeta plates (PerkinElmer). The assay begins by dispensing 49 μl of substrate solution (50 mM HEPES, pH 7.4, 100 mM KCl, 5 mM NaCl, 2 mM MgCl2, 2 mM NADPH and 160 nM [^3H]cortisone (1 Ci/mmol)) and mixing in 1 μL of the test compounds in DMSO previously diluted in half-log increments (8 points) starting at 0.1 mM. After a 10 minute pre-incubation, 50 μL of enzyme solution containing microsomes isolated from CHO cells overexpressing human 11β-HSD1 (10-20 μg/ml of total protein) was added, and the plates were incubated for 90 minutes at rt. The reaction was stopped by adding 50 μl of the SPA beads suspension containing 10 μM 18β-glycyrrhetinic acid, 5 mg/ml protein A coated YSi SPA beads (GE Healthcare) and 3.3 μg/ml of anti-cortisol antibody (East Coast Biologics) in Superblock buffer (Bio-Rad). The plates were shaken for 120 minutes at rt, and the SPA signal corresponding to [^3H]cortisol was measured on a Microbeta plate reader.

T1 sequence (P28845 whole entry): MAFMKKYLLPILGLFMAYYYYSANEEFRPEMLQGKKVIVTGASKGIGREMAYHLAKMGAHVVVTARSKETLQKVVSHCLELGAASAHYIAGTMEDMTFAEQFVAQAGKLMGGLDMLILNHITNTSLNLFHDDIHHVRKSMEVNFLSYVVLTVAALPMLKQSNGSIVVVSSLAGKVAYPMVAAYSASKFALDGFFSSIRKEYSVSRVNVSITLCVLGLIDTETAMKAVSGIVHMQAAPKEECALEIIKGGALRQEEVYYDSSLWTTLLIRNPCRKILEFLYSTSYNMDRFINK

SMILES	inhibition at 0.111 µM [%]	IC50 [µM]	inhibition at 0.1 µM [%]
CN1C(=O)C2(CCN(C(=O)/C=C/c3ccccc3C(F)(F)F)CC2)c2ccccc21 [EXAMPLE 31, (E)-1-methyl-1′-(3-(2-(trifluoromethyl)phenyl)acryloyl)spiro[indoline-3,4′-piperidin]-2-one]	–	< 0.1	99.9
Cc1ccc2c(c1)C(CC(=O)O)CC21CCN(C(=O)/C=C/c2ccccc2C(F)(F)F)CC1 (racemic) [EXAMPLE 12, (±)-(E)-2-(5-methyl-1′-(3-(2-(trifluoromethyl)phenyl)acryloyl)-2,3-dihydrospiro[indene-1,4′-piperidine]-3-yl)acetic acid]	90.3	< 0.1	–
CN1C(=O)C2(CCN(C(=O)/C=C/c3ccccc3C(F)(F)F)CC2)c2cc(C#N)ccc21 [EXAMPLE 39, (E)-1-methyl-2-oxo-1′-(3-(2-(trifluoromethyl)phenyl)acryloyl)spiro[indoline-3,4′-piperidine]-5-carbonitrile]	64.8	< 0.1	–
O=C(O)CC1CC2(CCN(C(=O)Cc3ccccc3OC(F)(F)F)CC2)c2c(Cl)cccc21 (centres unmarked) [EXAMPLE 52, 2-(7-chloro-1′-(2-(2-(trifluoromethoxy)phenyl)acetyl)-2,3-dihydrospiro[indene-1,4′-piperidine]-3-yl)acetic acid]	–	< 0.1	61.2
CC(=O)N1Cc2ccccc2C2(CCN(C(=O)/C=C/c3ccccc3C(F)(F)F)CC2)C1 [EXAMPLE 23, (E)-1-(2-acetyl-2,3-dihydro-1H-spiro[isoquinoline-4,4′-piperidine]-1′-yl)-3-(2-(trifluoromethyl)phenyl)prop-2-en-1-one]	94.9	< 0.1	–
CN1C(=O)c2cccc(Cl)c2C12CCN(C(=O)/C=C/c1ccccc1C(F)(F)F)CC2 [EXAMPLE 25, (E)-7-chloro-2-methyl-1′-(3-(2-(trifluoromethyl)phenyl)acryloyl)spiro[isoindoline-1,4′-piperidin]-3-one]	95.3	< 0.1	95.5
O=C1NC2(CCN(C(=O)/C=C/c3ccccc3C(F)(F)F)CC2)c2c(Cl)cc(Cl)cc21 [EXAMPLE 29, (E)-5,7-dichloro-1′-(3-(2-(trifluoromethyl)phenyl)acryloyl)spiro[isoindoline-1,4′-piperidin]-3-one]	94.2	< 0.1	–
O=C(O)CC1CC2(CCN(C(=O)Cc3ccc(Cl)cc3C(F)(F)F)CC2)c2c(Cl)cccc21 (centres unmarked) [EXAMPLE 54, 2-(7-chloro-1′(2-(4-chloro-2-(trifluoromethyl)phenyl)acetyl)-2,3-dihydrospiro[indene-1,4′-piperidine]-3-yl)acetic acid]	–	< 0.1	71.7
O=C(O)CC1CC2(CCN(C(=O)Cc3ccc(F)cc3C(F)(F)F)CC2)c2c(Cl)cccc21 (centres unmarked) [EXAMPLE 53, 2-(7-chloro-1′(2-(4-fluoro-2-(trifluoromethyl)phenyl)acetyl)-2,3-dihydrospiro[indene-1,4′-piperidine]-3-yl)acetic acid]	–	< 0.1	67.2
Cc1ccc2c(c1)C1(CCN(C(=O)/C=C/c3ccccc3C(F)(F)F)CC1)CC2CC(=O)O (racemic) [EXAMPLE 10, (±)-(E)-2-(6-methyl-1′-(3-(2-(trifluoromethyl)phenyl)acryloyl)-2,3-dihydrospiro[indene-1,4′-piperidine]-3-yl)acetic acid]	87.7	< 0.1	–
O=C(/C=C/c1ccccc1C(F)(F)F)N1CCC2(CC1)C(=O)Nc1ccc(F)cc12 [EXAMPLE 41, (E)-5-fluoro-1′-(3-(2-(trifluoromethyl)phenyl)acryloyl)spiro[indoline-3,4′-piperidin]-2-one]	–	< 0.1	91.2
CN1C(=O)c2ccccc2C12CCN(C(=O)/C=C/c1ccccc1C(F)(F)F)CC2 [EXAMPLE 24, (E)-2-methyl-1′-(3-(2-(trifluoromethyl)phenyl)acryloyl)spiro[isoindoline-1,4′-piperidin]-3-one]	82.3	< 0.1	–
CN(C)C(=O)c1ccc2c(c1)C1(CCN(C(=O)/C=C/c3ccccc3C(F)(F)F)CC1)C(=O)N2C [EXAMPLE 34, (E)-N,N,1-trimethyl-2-oxo-1′-(3-(2-(trifluoromethyl)phenyl)acryloyl)spiro[indoline-3,4′-piperidine]-5-carboxamide]	38.2	0.1 to 1	–
O=C1NC2(CCN(C(=O)Cc3ccccc3C(F)(F)F)CC2)c2c(Cl)cc(Cl)cc21 [EXAMPLE 50, 5,7-dichloro-1′-(2-(2-(trifluoromethyl)phenyl)acetyl)spiro[isoindoline-1,4′-piperidin]-3-one]	68.9	0.1 to 1	–
O=C(O)CC1CC2(CCN(C(=O)Cc3ccccc3C(F)(F)F)CC2)c2c(Cl)cccc21 (centres unmarked) [EXAMPLE 51, 2-(7-chloro-1′(2-(2-(trifluoromethyl)phenyl)acetyl)-2,3-dihydrospiro[indene-1,4′-piperidine]-3-yl)acetic acid]	–	< 0.1	76.8
O=C(O)CC1CC2(CCN(C(=O)/C=C/c3ccc(F)cc3C(F)(F)F)CC2)c2c(Cl)cccc21 (racemic) [EXAMPLE 4, (±)-(E)-2-(7-chloro-1′-(3-(4-fluoro-2-(trifluoromethyl)phenyl)acryloyl)-2,3-dihydrospiro[indene-1,4′-piperidine]-3-yl)acetic acid]	94.2	< 0.1	–

The next lines start with the values.

inhibition at 0.111 µM [%]	IC50 [µM]	inhibition at 0.1 µM [%]	SMILES
82.4	< 0.1	–	O=C1NC2(CCN(C(=O)CCc3ccccc3C(F)(F)F)CC2)c2c(Cl)cc(Cl)cc21 [EXAMPLE 72, 5,7-dichloro-1′-(3-(2-(trifluoromethyl)phenyl)propanoyl)spiro[isoindoline-1,4′-piperidin]-3-one]
61.2	< 0.1	–	CCOC(=O)CC1CC2(CCN(C(=O)NCc3c(C)cccc3Cl)CC2)c2c(Br)cccc21 (centres unmarked) [EXAMPLE 89, Ethyl 2-(7-bromo-1′-(2-chloro-6-methylbenzylcarbamoyl)-2,3-dihydrospiro[indene-1,4′-piperidine]-3-yl)acetate]
70.5	< 0.1	–	CCOC(=O)CC1CC2(CCN(C(=O)NCc3ccccc3C(F)(F)F)CC2)c2c(Br)cccc21 (centres unmarked) [EXAMPLE 92, Ethyl 2-(7-bromo-1′-(2-(trifluoromethyl)benzylcarbamoyl)-2,3-dihydrospiro[indene-1,4′-piperidine]-3-yl)acetate]
92.1	< 0.1	–	NC1CC2(CCN(C(=O)CCc3ccccc3C(F)(F)F)CC2)c2c(Br)cccc21 (centres unmarked) [EXAMPLE 66, 1-(3-amino-7-bromo-2,3-dihydrospiro[indene-1,4′-piperidine]-1′-yl)-3-(2-(trifluoromethyl)phenyl)propan-1-one]
95.4	< 0.1	96.6	O=C(O)CC1CC2(CCN(C(=O)CCc3ccccc3C(F)(F)F)CC2)c2c(Cl)cccc21 (centres unmarked) [EXAMPLE 73, 2-(7-chloro-1′-(3-(2-(trifluoromethyl)phenyl)propanoyl)-2,3-dihydrospiro[indene-1,4′-piperidine]-3-yl)acetic acid]
95.1	< 0.1	–	NC(=O)CC1CC2(CCN(C(=O)CCc3ccccc3C(F)(F)F)CC2)c2c(Cl)cccc21 (centres unmarked) [EXAMPLE 80, 2-(7-chloro-1′-(3-(2-(trifluoromethyl)phenyl)propanoyl)-2,3-dihydrospiro[indene-1,4′-piperidine]-3-yl)acetamide]
19.9	0.1 to 1	–	CCOC(=O)CC1CC2(CCN(C(=O)NCc3ccccc3OC(C)C)CC2)c2c(Br)cccc21 (centres unmarked) [EXAMPLE 95, Ethyl 2-(7-bromo-1′-(2-isopropoxybenzylcarbamoyl)-2,3-dihydrospiro[indene-1,4′-piperidine]-3-yl)acetate]
60	< 0.1	–	COC(=O)c1ccc2c(c1)C1(CCN(C(=O)CCc3ccccc3C(F)(F)F)CC1)C(=O)N2C [EXAMPLE 76, 1-methyl-2-oxo-1′-(3-(2-(trifluoromethyl)phenyl)propanoyl)spiro[indoline-3,4′-piperidine]-5-carboxylate]
75.6	< 0.1	–	O=C1CC2(CCN(C(=O)NCc3ccccc3OC(F)(F)F)CC2)c2c(Br)cccc21 [EXAMPLE 99, 7-bromo-3-oxo-N-(2-(trifluoromethoxy)benzyl)-2,3-dihydrospiro[indene-1,4′-piperidine]-1′-carboxamide]
26.3	0.1 to 1	–	CN1C(=O)C2(CCN(C(=O)CCc3ccccc3C(F)(F)F)CC2)c2cc(C(N)=O)ccc21 [EXAMPLE 77, 1-methyl-2-oxo-1′-(3-(2-(trifluoromethyl)phenyl)propanoyl)spiro[indoline-3,4′-piperidine]-5-carboxamide]
52.4	0.1 to 1	–	Cc1ccccc1CNC(=O)N1CCC2(CC1)CC(CC(=O)N1CCNCC1)c1cccc(Br)c12 (centres unmarked) [EXAMPLE 90, 7-bromo-N-(2-methylbenzyl)-3-(2-oxo-2-(piperazin-1-yl)ethyl)-2,3-dihydrospiro[indene-1,4′-piperidine]-1′-carboxamide]
